Measurements reported in ChEMBL document CHEMBL3046713, “Synthesis and antimicrobial activity of pyrimidine chalcones” (2013).

How the values were obtained:
Type in all cases: functional
Escherichia coli [1] = assay: Antibacterial activity against Escherichia coli DH5[alpha] at 5 mg/ml after 24 hrs by Kirby-Bauer single disc susceptibility test; conditions: read-out: DIZ
Rhodococcus rhodochrous [2] = assay: Antibacterial activity against Rhodococcus rhodochrous MTCC 265 at 2.5 mg/ml after 24 hrs by Kirby-Bauer single disc susceptibility test; conditions: MTCC 265, 24 h, read-out: DIZ
Rhodococcus rhodochrous [3] = assay: Antibacterial activity against Rhodococcus rhodochrous MTCC 265 at 5 mg/ml after 24 hrs by Kirby-Bauer single disc susceptibility test; conditions: MTCC 265, 24 h, read-out: DIZ
Escherichia coli [4] = assay: Antibacterial activity against Escherichia coli DH5[alpha] at 2.5 mg/ml after 24 hrs by Kirby-Bauer single disc susceptibility test; conditions: read-out: DIZ

SMILES	zone of inhibition at 5000 µg/mL (Escherichia coli [1]) [mm]	zone of inhibition at 2500 µg/mL (Rhodococcus rhodochrous [2]) [mm]	zone of inhibition at 5000 µg/mL (Rhodococcus rhodochrous [3]) [mm]	zone of inhibition at 2500 µg/mL (Escherichia coli [4]) [mm]
Cn1c(O)c(C(=O)/C=C/c2ccc(OCc3cn(-c4ccc(Br)cc4)nn3)cc2)c(=O)n(C)c1=O	0	3	2	0
Cn1c(O)c(C(=O)/C=C/c2ccc(OCc3cn(-c4ccccc4)nn3)cc2)c(=O)n(C)c1=O	3	4	3	4
Cn1c(O)c(C(=O)/C=C/c2ccc(OCc3cn(-c4ccc(F)cc4)nn3)cc2)c(=O)n(C)c1=O	0	0	0	0
COc1cccc(-n2cc(COc3ccc(/C=C/C(=O)c4c(O)n(C)c(=O)n(C)c4=O)cc3)nn2)c1	3.5	3	2	3
COc1ccc(-n2cc(COc3ccc(/C=C/C(=O)c4c(O)n(C)c(=O)n(C)c4=O)cc3)nn2)cc1	0	2	2	0
Cn1c(O)c(C(=O)/C=C/c2ccc(OCc3cn(Cc4ccccc4)nn3)cc2)c(=O)n(C)c1=O	0	2	2	0
Cc1cccc(-n2cc(COc3ccc(/C=C/C(=O)c4c(O)n(C)c(=O)n(C)c4=O)cc3)nn2)c1	2	3	2	2
Cn1c(O)c(C(=O)/C=C/c2ccc(OCc3cn(-c4ccc(Cl)cc4)nn3)cc2)c(=O)n(C)c1=O	0	0	0	0
